Laboratory results: ChEMBL document CHEMBL1148029, “Synthesis and radiopharmacological characterization of 2beta-carbo-2'-[18F]fluoroethoxy-3beta-(4-bromo-phenyl)tropane ([18F]MCL-322) as a PET radiotracer for imaging the dopamine transporter (DAT)” (Bioorg Med Chem, 2007)

Legend:
[1] = tested on: Muscle tissue; assay: Biodistribution in Wistar rat muscle at 300 uCi, iv after 20 mins; type: ADME, organism-based; details: in vivo
[2] = Biodistribution in Wistar rat brown fat at 300 uCi, iv after 5 mins; type: ADME, organism-based, Brown adipose tissue; details: in vivo
[3] = tested on: Kidney; assay: Biodistribution in Wistar rat kidney at 300 uCi, iv after 20 mins; type: ADME, organism-based; details: in vivo
[4] = tested on: Thymus; assay: Biodistribution in Wistar rat thymus at 300 uCi, iv after 120 mins; type: ADME, organism-based; details: in vivo, 2 h
[5] = tested on: Harderian gland; assay: Biodistribution in Wistar rat harderian glands at 300 uCi, iv after 120 mins; type: ADME, organism-based; details: in vivo, 2 h
[6] = tested on: Hippocampus; assay: Biodistribution in Wistar rat hippocampus at 300 uCi, iv after 240 mins; type: ADME, organism-based; details: in vivo, 4 h
[7] = tested on: Brain; assay: Biodistribution in Wistar rat rest of brain at 300 uCi, iv after 60 mins in presence of nisoxetine; type: ADME, organism-based; details: in vivo, 1 h
[8] = tested on: Testes; assay: Biodistribution in Wistar rat testes at 300 uCi, iv after 120 mins; type: ADME, organism-based, Testis; details: in vivo, 2 h

Compound: CN1C2CCC1C(C(=O)OCC[18F])C(c1ccc(Br)cc1)C2 (stereo not drawn)
- Drug uptake [1]: 0.33 % ID/g
- Drug uptake [2]: 1.46 % ID/g
- Drug uptake [3]: 3.51 % ID/g
- Drug uptake [4]: 0.21 % ID/g
- Drug uptake [5]: 1.82 % ID/g
- Drug uptake [6]: 0.18 % ID/g
- Drug uptake [7]: 1.23 % ID/g
- Drug uptake [8]: 0.39 % ID/g
